Results: publication PMC9229294, “Pyridazinones and Structurally Related Derivatives with Anti-Inflammatory Activity” (Molecules, 2022)
Read-outs that look alike come from different tables or passages of the source.

Tests used:
FPR2 = molecular target: T1, FPR2 (Homo sapiens, UniProt P25090); conditions: FPR2-transfected HL-60 cells, read-out: Ca2+ Mobilization FPR2 EC50 in HL-60 Cells, cited from earlier work
T1 construct: expressed in transfected cells; host or cells: HL-60 cells (FPR2-HL60)
T1 sequence (P25090 1-351): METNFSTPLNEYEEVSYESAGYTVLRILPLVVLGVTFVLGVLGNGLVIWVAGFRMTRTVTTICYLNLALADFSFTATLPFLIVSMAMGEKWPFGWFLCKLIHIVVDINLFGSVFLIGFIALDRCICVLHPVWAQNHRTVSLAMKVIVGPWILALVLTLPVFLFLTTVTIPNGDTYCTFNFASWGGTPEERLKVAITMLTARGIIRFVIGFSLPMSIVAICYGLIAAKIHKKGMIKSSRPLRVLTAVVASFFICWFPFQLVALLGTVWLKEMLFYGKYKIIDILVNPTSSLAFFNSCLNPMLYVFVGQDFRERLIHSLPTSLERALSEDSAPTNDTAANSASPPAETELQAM

FPR1 = molecular target: T2, FPR1 (Homo sapiens, UniProt P21462); conditions: FPR1-transfected HL-60 cells, read-out: Ca2+ Mobilization FPR1 EC50 in HL-60 Cells, cited from earlier work
T2 construct: expressed in transfected cells; host or cells: HL-60 cells (FPR1-HL60)
T2 sequence (P21462 1-350): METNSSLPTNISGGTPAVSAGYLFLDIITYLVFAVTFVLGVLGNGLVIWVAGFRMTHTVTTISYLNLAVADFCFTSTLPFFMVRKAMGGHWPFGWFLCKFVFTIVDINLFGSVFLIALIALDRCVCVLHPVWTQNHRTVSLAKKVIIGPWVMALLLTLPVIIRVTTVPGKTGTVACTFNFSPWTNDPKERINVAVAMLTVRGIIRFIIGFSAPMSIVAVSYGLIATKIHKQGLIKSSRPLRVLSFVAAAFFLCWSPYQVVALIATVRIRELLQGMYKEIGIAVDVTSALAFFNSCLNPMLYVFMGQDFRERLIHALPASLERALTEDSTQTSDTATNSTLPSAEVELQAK

[1] = test system: LPS-induced NF-κB activity in THP1-Blue cells; experiment: Inhibition of LPS-induced NF-κB transcriptional activity, alkaline phosphatase reporter, THP1-Blue cells; type: cell-based, human; conditions: for IC50: Homo sapiens, LPS-induced NF-κB activity, human THP1-Blue cells, N.A. = no activity at 50 µM; for Observed class for inhibition of NF-κB activity: experimentally observed, Active or N.A.; for Inhibition of LPS-induced NF-κB activity (in words): THP1-Blue cells, 250 ng/mL LPS, 24 h
Method: (§1) Our studies included 175 compounds that were previously synthesized and characterized at NEUROFARBA, Pharmaceutical and Nutraceutical Section, University of Florence, Italy. We previously evaluated the FPR1/FPR2 agonist activity of these compounds by evaluating their ability to induce Ca^2+ mobilization in FPR-transfected HL60 cells and human neutrophils. […] All test compounds were dissolved in DMSO at stock concentrations of 10 mM and stored at −20 °C. For primary screening assays (analysis of NF-κB activation, IL-6 production, and cytotoxicity), the following final concentrations of the compounds were used: 3.125, 6.25, 12.5, 25, and 50 µM; the final concentration of DMSO was 1% in all samples.
The activation of NF-κB was measured using an alkaline phosphatase reporter assay in human monocytic THP1-Blue cells stably transfected with a secreted embryonic alkaline phosphatase gene that is under the control of a promoter inducible by the NF-κB. The THP1-Blue cells (2 × 10^5 cells/well) were pretreated with the test compound or DMSO for 30 min, followed by an addition of 250 ng/mL LPS for 24 h. Alkaline phosphatase activity was determined in cell supernatants using a QUANTI-Blue mix (InvivoGen) and measured at 655 nm and compared with positive control samples (LPS).

[2] = Cytotoxicity, CellTiter-Glo, MonoMac-6 cells; type: cell-based, human; conditions: human, MonoMac-6 cells
Method: as §1
(§2) The cytotoxicity was analyzed with a CellTiter-Glo Luminescent Cell Viability Assay Kit from Promega (Madison, WI, USA), according to the manufacturer’s protocol. The luminescent ATP assays are based on a luciferase enzymatic reaction which uses ATP from viable cells to generate photons. For this assay, the cells were incubated with the compounds under investigation for 24 h. After treatment, the cells were equilibrated to room temperature for 30 min, luciferase + luciferin substrate was added, and the samples were analyzed with a Fluoroscan Ascent FL (Thermo Fisher Scientific, Waltham, MA, USA). The IC50 values were calculated by plotting the percentage inhibition against the logarithm of the inhibitor concentration (at least five points).

[3] = test system: LPS-induced IL-6 production in MonoMac-6 cells; experiment: Inhibition of LPS-induced IL-6 production in MonoMac-6 cells (ELISA); type: cell-based, human; conditions: for IC50: Homo sapiens; for Inhibition of LPS-induced IL-6 production (in words): MonoMac-6 cells, 250 ng/mL LPS, 24 h
Method: as §1
A human IL-6 ELISA kit (BD Biosciences, San Jose, CA, USA) was used to measure IL-6 production. […] The cells were pretreated with the test compound or DMSO for 30 min, followed by addition of 250 ng/mL LPS for 24 h. The IC50 values for IL-6 production were calculated by plotting the percentage inhibition against the logarithm of the inhibitor concentration (at least five points).

[4] = Cytotoxicity, CellTiter-Glo, THP1-Blue cells; type: cell-based, human; conditions: human, THP1-Blue cells; N.T. = no cytotoxicity at 50 µM; read-out: Cytotoxicity IC50 in THP1-Blue Cells
Method: as §1, §2

[5] = Table 3, as reported previously (see Table 1)
[6] = MONO-MAC-6, read-out: Inhibition of IL-6 Production IC50 in MonoMac-6 Cells
[7] = MONO-MAC-6, 24 h, read-out: IC50, LPS-induced IL-6 production

Structure (SMILES)	IC50 [1]	IC50 [3, 6]	IC50 [3, 7]	EC50 (FPR2; agonist activity from Table 1)	EC50 (FPR2; [5])	EC50 (FPR1; agonist activity from Table 1)	EC50 (FPR1; [5])	Observed class for inhibition of NF-κB activity [1]	IC50 at 24 h [2]	Inhibition of LPS-induced IL-6 production (in words) [3]	IC50 at 24 h [4]	Inhibition of LPS-induced NF-κB activity (in words) [1]
COc1ccc(-c2cc(Cc3cccc(OC)c3)c(=O)n(CC(=O)Nc3ccc(F)cc3)n2)cc1 [Compound 38]	19.6 ± 4.3 µM	20.3 ± 1.8 µM	–	> 50 µM	> 50 µM	> 50 µM	> 50 µM	Active	> 50 µM	inhibitors of IL-6 production	> 50 µM	–
COc1cccc(Cc2cc(-c3ccc(Cl)cc3)nn(CC(=O)Nc3ccc(F)cc3)c2=O)c1 [Compound 42]	22.5 ± 2.3 µM	35.6 ± 3.1 µM	–	> 50 µM	> 50 µM	> 50 µM	> 50 µM	–	> 50 µM	inhibitors of IL-6 production	> 50 µM	active
COc1cccc(Cc2cc(-c3ccc(C)cc3)nn(CC(=O)Nc3ccc(F)cc3)c2=O)c1 [Compound 46]	8.2 ± 1.2 µM	> 50 µM	–	> 50 µM	> 50 µM	> 50 µM	> 50 µM	–	> 50 µM	inhibitors of IL-6 production	> 50 µM	active
COc1cccc(Cc2cc(-c3ccc(F)cc3)nn(CC(=O)Nc3ccc(F)cc3)c2=O)c1 [Compound 47]	3.4 ± 0.2 µM	18.8 ± 2.9 µM	–	> 50 µM	> 50 µM	> 50 µM	> 50 µM	–	> 50 µM	inhibitors of IL-6 production	> 50 µM	active
CCc1c(C)nn(CC(=O)Nc2ccc(Br)cc2)c(=O)c1Cc1cccc(OC)c1 [Compound 78]	20.7 ± 0.7 µM	17 ± 0.4 µM	–	–	1.9 µM	–	3.2 µM	Active	> 50 µM	–	> 50 µM	–
CCCc1c(C)nn(CC(=O)Nc2ccc(Br)cc2)c(=O)c1Cc1cccc(OC)c1 [Compound 79]	15.7 ± 1.4 µM	13.7 ± 1.4 µM	–	4.6 µM	–	2.2 µM	–	Active	> 50 µM	–	> 50 µM	–
CCCCc1c(C)nn(CC(=O)Nc2ccc(Br)cc2)c(=O)c1Cc1cccc(OC)c1 [Compound 80]	15 ± 1.5 µM	33.5 ± 2.4 µM	–	–	15.7 µM	> 50 µM	> 50 µM	Active	> 50 µM	–	> 50 µM	–
CCCc1c(C)nn(CC(=O)Nc2ccc(Br)cc2)c(=O)c1Nc1cccc(OC)c1 [Compound 83]	14.6 ± 1.4 µM	15.2 ± 0.2 µM	–	> 50 µM	> 50 µM	> 50 µM	> 50 µM	Active	> 50 µM	inhibitors of IL-6 production	> 50 µM	–
COc1cccc(Cc2cc(C)nn(C(C)(C)C(=O)Nc3ccc(Br)cc3)c2=O)c1 [Compound 89]	29.2 ± 1 µM	27.9 ± 2.2 µM	–	20.4 µM	20.4 µM	6.3 µM	6.3 µM	Active	> 50 µM	–	> 50 µM	–
CC[C@H](C(=O)Nc1ccc(Br)cc1)n1nc(C)cc(Cc2cccc(OC)c2)c1=O [Compound 94]	30.8 ± 6.7 µM	14.3 ± 2 µM	–	2.3 µM	2.3 µM	2.8 µM	2.8 µM	–	> 50 µM	–	> 50 µM	–

Further lines, with some results ahead:

IC50 [1]	IC50 [3, 6]	IC50 [3, 7]	Structure (SMILES)	EC50 (FPR2; agonist activity from Table 1)	EC50 (FPR2; [5])	EC50 (FPR1; agonist activity from Table 1)	EC50 (FPR1; [5])	Observed class for inhibition of NF-κB activity [1]	IC50 at 24 h [2]	Inhibition of LPS-induced IL-6 production (in words) [3]	IC50 at 24 h [4]	Inhibition of LPS-induced NF-κB activity (in words) [1]
12.1 ± 2.4 µM	9.8 ± 1 µM	–	CC[C@@H](C(=O)Nc1ccc(Br)cc1)n1nc(C)cc(Cc2cccc(OC)c2)c1=O [Compound 95]	22.2 µM	22.2 µM	13.4 µM	13.4 µM	–	> 50 µM	–	> 50 µM	–
10.6 ± 2.3 µM	5.6 ± 0.3 µM	–	CCC[C@H](C(=O)Nc1ccc(Br)cc1)n1nc(C)cc(Cc2cccc(OC)c2)c1=O [Compound 98]	0.84 µM	0.84 µM	3 µM	3 µM	–	> 50 µM	–	> 50 µM	–
22.1 ± 1.6 µM	19 ± 3.1 µM	–	CC[C@](C)(C(=O)Nc1ccc(Br)cc1)n1nc(C)cc(Cc2cccc(OC)c2)c1=O [Compound 102]	13.7 µM	13.7 µM	4.5 µM	4.5 µM	–	> 50 µM	–	> 50 µM	–
16.6 ± 0.6 µM	7.3 ± 1.2 µM	–	CC[C@@](C)(C(=O)Nc1ccc(Br)cc1)n1nc(C)cc(Cc2cccc(OC)c2)c1=O [Compound 103]	> 50 µM	> 50 µM	7 µM	7 µM	–	> 50 µM	–	> 50 µM	–
21.4 ± 3.5 µM	4 ± 1.2 µM	< 10 µM	COc1cccc(-n2ccc(=O)n(CC(=O)Nc3ccc(Br)cc3)c2=O)c1 [Compound 150]	3.6 µM	–	–	4.3 µM	Active	> 50 µM	–	> 50 µM	–
20.8 ± 0.5 µM	10.7 ± 0.1 µM	< 10 µM	O=C(Cn1c(=O)ccn(-c2ccccc2)c1=O)Nc1ccc(Br)cc1 [Compound 153]	–	8.9 µM	12.5 µM	–	Active	> 50 µM	–	> 50 µM	–
25.6 ± 2.3 µM	2.6 ± 0.3 µM	–	CCCn1cc(-c2cccc(OC)c2)c(=O)n(CC(=O)Nc2ccc(Br)cc2)c1=O [Compound 154]	2.4 µM	–	3.3 µM	–	Active	> 50 µM	–	> 50 µM	–
19.2 ± 0.1 µM	3.2 ± 0.4 µM	–	O=C(Cn1c(-c2ccc([N+](=O)[O-])cc2)csc1=O)Nc1ccc(Br)cc1 [Compound 169]	> 50 µM	> 50 µM	–	9.1 µM	Active	> 50 µM	potent IL-6 inhibitors	> 50 µM	–
